According to patent US6150393A (priority 1999, dated 2000):

Columns and labels:
[1] = system: human mutated 5HT2A receptor, AP-3; experiment: Receptor-mediated inositol phosphate (IP3) accumulation, AP-3; type: cell-based
Description: On day one, 1×10^7 293 cells per 150 mm plate were plated out. On day two, two reaction tubes were prepared (the proportions to follow for each tube are per plate): tube A was prepared by mixing 20 μg DNA (e.g., pCMV vector; pCMV vector AP-1 cDNA, etc.) in 1.2 ml serum free DMEM (Irvine Scientific, Irvine, Calif.); tube B was prepared by mixing 120 μl lipofectamine (Gibco BRL) in 1.2 ml serum free DMEM. Tubes A and B were then admixed by inversions (several times), followed by incubation at room temperature for 30-45 min. The admixture is referred to as the "transfection mixture". Plated 293 cells were washed with 1×PBS, followed by addition of 10 ml serum free DMEM. 2.4 ml of the transfection mixture was then added to the cells, followed by incubation for 4 hrs at 37° C./5% CO2. On day 3, cells were trypsinized and counted, followed by plating of 1×10^6 cells/well (poly D-lysine treated 12-well plates). Cells were permitted to adhere to the wells, followed by one wash with 1×PBS. Thereafter, 0.5 μCi ^3 H-inositol in 1 ml inositol-free DMEM was added per well. Protocol B.
On day 4, the cells were washed with 0.5 ml PBS and then 0.45 ml of assay medium was added containing inositol-free/serum free media, 10 μM pargyline, 10 mM lithium chloride, or 0.4 ml of assay medium and 50 ul of 10× ketanserin (ket) to a final concentration of 10 μM. The cells were then incubated for 30 minutes at 37° C. Then the cells were washed with 0.5 ml PBS and 200 ul of fresh/ice cold stop solution (1M KOH; 18 mM Na-borate; 3.8 mM EDTA) was added/well. The solution was kept on ice for 5-10 minutes or until the cells were lysed and then neutralized by 200 μl of fresh/ice cold neutralization sol. (7.5% HCL). The lysate was then transferred into 1.5 ml microcentrifuge tubes and 1 ml of chloroform/methanol (1:2) was added/tube. The solution was vortexed for 15 seconds and the upper phase was applied to a Biorad AG1-X8 anion exchange resin (100-200 mesh). The resin was washed with water and 0.9 ml of the upper phase was loaded onto the column. The column was washed with 10 mls of 5 mM myo-inositol and 10 ml of 5 mM Na-borate/60 mM Na-formate. The inositol trisphosphates were eluted into scintillation vials containing 10 ml of scintillation cocktail with 2 ml of 0.1 M formic acid/1 M ammonium formate. The columns were regenerated by washing with 10 ml of 0.1 M formic acid/3M ammonium formate and rinsed twice with dd H2 O and stored at room temperature in water.
Candidate compound identified in the assays of Examples 9a-9c were then evaluated for inositol phosphate accumulation, following the protocol of Example 5 ([…] expressing human mutated 5HT2A receptor, AP-3), modified as follows: tube A was prepared by mixing 16 μg DNA (e.g., pCMV vector; pCMV vector AP-1 cDNA, etc.) in 1.0 ml serum free DMEM (Irvine Scientific, Irvine, Calif.); tube B was prepared by mixing 60 μl lipofectamine (Gibco BRL) in 1.0 ml serum free DMEM. Tubes A and B were then admixed by inversions (several times), followed by incubation at room temperature for 30 min. The admixture is referred to as the "transfection mixture". Plated 293 cells were washed with 10 ml Serum Free DMEM, followed by addition of 11 ml Serum Free DMEM. 2.0 ml of the transfection mixture was then added to the cells, followed by incubation for 5 hrs at 37° C./5% CO2. On day 3, cells were trypsinized and counted, followed by plating of 1×10^6 cells/well (12-well plates). Cells were permitted to adhere to the wells for 8 hrs, followed by one wash with 1×PBS. Thereafter, 0.5 μCi ^3 H-inositol in 1 ml inositol-free DMEM was added per well.
On day 4, the cells were washed with 1.5 ml PBS and then 0.9 ml of assay medium was added containing inositol-free/serum free media, 10 μM pargyline, 10 mM lithium chloride, for 5 min in 37° C./5% CO2 followed by 100 μl addition of candidate compound diluted in the same material. The cells were then incubated for 120 minutes at 37° C. […]

[2] = system: 5HT2 receptors; experiment: DOI locomotor activity test in rats (DOI inhibition study), intraperitoneal test compound; type: in vivo, rat (male Sprague-Dawley); conditions: i.p. 30 min before DOI (0.3 mg/kg s.c.)
Description: (§1) FIG. 3 provides a graphic summary of dose-response results from in vivo analysis of compound 116082 in a 1-(2,5-dimethoxy-4-iodophenyl)-2-aminopropane ("DOI") inhibition study (fine movement; ambulation; and animal rearing outcome measures). 116082 was administered 30 min prior to DOI. Animals were placed in locomotor activity cages 10 min after DOI administration and activity was measured for 10 min. Results are presented as total activity counts over the 10 min of exposure to the locomotor activity apparatus.
as §1, with “FIG. 4” for “FIG. 3”, “compound 116081” for “compound 116082”, “a DOI” for “a 1-(2,5-dimethoxy-4-iodophenyl)-2-aminopropane ("DOI")”, “measures). 116081” for “measures). 116082”
Assessment of 5-HT2 receptor antagonism in vivo was made by using the DOI locomotor activity test in rats as described by Krebs-Thomson (Psychopharmacology, 140:69-74, 1998).
Motor function was assessed by using automated locomotor activity cages. The rats were placed in a standard rodent cage surrounded by photocell beams, which allow for automated recording of motor activity. […]

[3] = Bar catalepsy test in rats (extrapyramidal side effect analysis); type: in vivo, rat (male Sprague-Dawley)
[4] = DOI inhibition study in rats, oral administration of test compound (oral availability); type: in vivo, rat; conditions: in vivo; rat; 50 mg/kg oral vs 10 mg/kg i.p., inferred from DOI test
Description: (§2) FIG. 6 provides a graphic summary of the effects of oral administration of 116082 and 116081 in a DOI inhibition study in rats. Values represent the mean±SEMs (n=6/group). #P<0.05 vs. vehicle/vehicle, *P<0.05 vs. vehicle/DOI, Student t-test.
(§3) Based upon the in vivo data developed, oral bioavailability of compounds […] was considered. The compounds were administered by oral gavage at a dose of 50 mg/kg, 30 min prior to DOI in rats (see Example 11A, supra). Animals were placed in the locomotor activity cages 10 min after DOI administration and activity was measured for 10 min. Results, presented in FIG. 6, provide total activity counts over the 10 min of exposure to the locomotor activity apparatus.

[5] = system: 5HT2 receptors; experiment: as above; type: in vivo, rat
Description: as §2, §3

[6] = system: human 5HT2A receptor compared with human 5HT2C receptor; experiment: Selectivity for 5HT2A over 5HT2C receptor (as measured by IC50 values); type: binding
[7] = system: 5HT2 receptors; conditions: peripheral administration, 0.3 mg/kg; cited from earlier work
[8] = rodents; cited from earlier work
[9] = type: in vivo, rat (male Sprague-Dawley); conditions: i.p.; total activity counts over 120 min after MK-801
Description: FIG. 7 provides a graphic summary of the reversal of MK-801-induced hyperactivity using 116081 (7A) and clozapine (7B). […] 116081 produced a significant reversal of the effect of MK-801 at a dose of 25 μmol/kg (10 mg/kg). Results are presented as total activity counts over the 120 min of exposure to the locomotor activity apparatus after administration of MK-801. Data (mean±SEM) were analyzed by ANOVA followed by Dunnett's test (n=6-8/group).
Because part of the symptomatology of schizophrenia may be related to altered glutamate transmission at the NMDA receptor, the reversal of MK-801-induced hyperlocomotor activity in rodents has been used routinely as an animal model for detecting potential antipsychotic activity (O'Neill et al., Pharmacology Biochem. Behav., 63: 237-243, 1999). Thus, this test was used to determine potential antipsychotic properties of 116081 in vivo.
Motor activity was assessed using automated locomotor activity cages as described above (Example 11(A), supra.). Male Sprague-Dawley rats (250-350 g body weight) were administered test compounds (i.p.) and placed in the locomotor activity cages for 30 min of habituation. Following habituation,animals were administered MK-801 (0.5 μmol/kg=0.17 mg/kg, s.c.) and then immediately placed back into the locomotor activity cages, and activity was measured for 120 min. A reversal of MK-801-induced motor activity (as shown by a significant […] of ambulation) in rats is considered to be predictive of the ability of the test compound to reverse psychotic symptoms.

Which “IP3 % of Control” value ([1]; 10 μM test compound, triplicate, control without test compound) does the source give for `Cn1cc(Br)c(-c2cccc(NC(=O)Nc3ccc(F)cc3)c2)n1` [Compound 116082, {[3-(4-bromo-1-methylpyrazol-3-yl)phenyl]amino}-N-(4-fluorophenyl)carboxamide] here?
Its value is 11%.

What about the “profile in in vitro functional assays” value ([1]; in vitro functional assays) of the same molecule?
The value was “selective 5HT2A inverse agonist properties”.

What about the “reversal of DOI-induced motor dysfunction” value [2] of the same molecule?
The value was “beneficially reverses DOI-induced motor dysfunction”.

What about the extra-pyramidal side effects ([3]; at a dose 8 times greater than the dose required to block 5HT2A receptors in vivo) of the same molecule?
Its extra-pyramidal side effects is “does not induce extra-pyramidal side effects in rats”.

What about the induction of catalepsy ([3]; i.p., 10 to 80 mg/kg) of the same molecule?
Its induction of catalepsy is “does not induce catalepsy in rats”.

And the “time spent on the bar” value ([3]; i.p., 10 to 80 mg/kg, 60 min before test)?
Its value is “did not induce a dose-dependent increase in time spent on the bar”.

And the selectivity ratio ([3]; rat, in vivo, ip, bar test versus DOI test, rats, read-out: dose without extra-pyramidal side effects relative to dose required to block 5HT2A receptors in vivo)?
Its selectivity ratio is 8.

And the bioavailability [4]?
Its bioavailability is at least 20%.

And the “oral efficacy compared with intraperitoneal administration” value ([5]; 50 mg/kg oral vs 10 mg/kg i.p.)?
Its value is “as efficacious as a 10 mg/kg dose of the same compounds administered intraperitoneally”.

And the “reversal of DOI-induced motor dysfunction, oral” value ([5]; oral gavage 50 mg/kg, 30 min prior to DOI)?
The value was “reversed DOI-induced motor dysfunction in rats”.

And the oral activity ([5]; rat, DOI test, 50 mg/kg oral)?
The oral activity was “orally active”.

And the “selectivity preference for the 5HT2A receptor compared with the 5HT2C receptor” value [6]?
Its value is 100 fold.

With `COc1cc(CC(C)N)c(OC)cc1I` (stereo not drawn) [DOI, 1-(2,5-dimethoxy-4-iodophenyl)-2-aminopropane] as the molecule, how does the “motor function effect of DOI alone” value [7] read?
The value was “produces motor dysfunction in rats as shown by a decrease in ambulation”.

Which “effect of MK-801 alone on locomotor activity and stereotypy” value [8] does the source give for `C[C@]12N[C@H](Cc3ccccc31)c1ccccc12` [MK-801] here?
The value was “induces significant increases in locomotor activity and stereotypy”.

Which “attenuation of MK-801-induced hyperactivity (ambulations)” value [9] does the source give for `CN1CCN(C2=Nc3cc(Cl)ccc3Nc3ccccc32)CC1` [clozapine, reference compound] here?
Its value is “dose-dependently attenuated MK801-induced hyperactivity”.
